{"source": "patent US20060130266A1", "about": "“Dermal drug delivery system” (priority 2004, published 2006)", "key": {"[1]": {"assay": "In vitro skin permeation, Franz cell infinite dose study (optimisation studies with MP, BP, CF)", "settings": "BP; for EF enhancement factor: flux vs untreated skin"}, "[2]": {"settings": "octanol/water; cited from earlier work"}, "[3]": {"settings": "Table 4b, brush A 450 Nm^−2, 20 s, 80 rpm"}, "[4]": {"settings": "Table 4b, brush A 450 Nm^−2, 45 s, 80 rpm"}, "[5]": {"settings": "Table 4b, brush A 750 Nm^−2, 45 s, 80 rpm"}, "[6]": {"settings": "Table 4b, brush A 1200 Nm^−2, 45 s, 80 rpm"}, "[7]": {"settings": "Table 5c, EtoH/PBS (50% ethanol donor solution)"}, "[8]": {"settings": "Table 5c, brush A 450 Nm^−2, 45 s"}, "[9]": {"settings": "Table 5c, brush B 300 Nm^−2, 15 s"}, "[10]": {"settings": "Table 5c, brush B 300 Nm^−2, 25 s"}, "[11]": {"settings": "Table 5c, brush B 450 Nm^−2, 15 s"}}, "note": "Marks after values point to notes of the source that are not given here."}
{"molecule": "CCCCOC(=O)c1ccc(O)cc1", "note": "[BP, Butyl paraben]", "values": [{"measurement": "JS flux", "setting": "[1]; [3]", "result": "6.60 ± 0.49* 10^−3 μg/cm/s"}, {"measurement": "KP permeability coefficient", "setting": "[1]; [3]", "result": "3.30 ± 0.25 10^−5 cm/s"}, {"measurement": "TL lag time", "setting": "[1]; [3]", "result": "37.10 ± 2.26", "unit": "min"}, {"measurement": "EF enhancement factor", "setting": "[1]; [3]", "result": 1.74}, {"measurement": "JS flux", "setting": "[1]; [4]", "result": "7.50 ± 0.75* 10^−3 μg/cm/s"}, {"measurement": "KP permeability coefficient", "setting": "[1]; [4]", "result": "3.75 ± 0.37 10^−5 cm/s"}, {"measurement": "TL lag time", "setting": "[1]; [4]", "result": "25.22 ± 2.17", "unit": "min"}, {"measurement": "EF enhancement factor", "setting": "[1]; [4]", "result": 1.97}, {"measurement": "JS flux", "setting": "[1]; [5]", "result": "8.26 ± 0.89* 10^−3 μg/cm/s"}, {"measurement": "KP permeability coefficient", "setting": "[1]; [5]", "result": "4.13 ± 0.45 10^−5 cm/s"}, {"measurement": "TL lag time", "setting": "[1]; [5]", "result": "26.34 ± 1.48", "unit": "min"}, {"measurement": "EF enhancement factor", "setting": "[1]; [5]", "result": 2.17}, {"measurement": "JS flux", "setting": "[1]; [6]", "result": "8.62 ± 1.05* 10^−3 μg/cm/s"}, {"measurement": "KP permeability coefficient", "setting": "[1]; [6]", "result": "4.31 ± 0.52 10^−5 cm/s"}, {"measurement": "TL lag time", "setting": "[1]; [6]", "result": "26.39 ± 1.30", "unit": "min"}, {"measurement": "EF enhancement factor", "setting": "[1]; [6]", "result": 2.26}, {"measurement": "JS flux", "setting": "[1]; Table 4b, delipidised skin", "result": "15.95 ± 1.55* 10^−3 μg/cm/s"}, {"measurement": "KP permeability coefficient", "setting": "[1]; Table 4b, delipidised skin", "result": "7.98 ± 0.78 10^−5 cm/s"}, {"measurement": "TL lag time", "setting": "[1]; Table 4b, delipidised skin", "result": "18.58 ± 3", "unit": "min"}, {"measurement": "EF enhancement factor", "setting": "[1]; Table 4b, delipidised skin", "result": 4.20}, {"measurement": "KP permeability coefficient", "setting": "[1]; Table 4b, untreated skin", "result": "1.90 ± 0.23 10^−5 cm/s"}, {"measurement": "TL lag time", "setting": "[1]; Table 4b, untreated skin", "result": "33.47 ± 8.79", "unit": "min"}, {"measurement": "KP permeability coefficient", "setting": "[1]; [7]", "result": "9.24 ± 0.80 10^−5 cm/s"}, {"measurement": "TL lag time", "setting": "[1]; [7]", "result": "26.43 ± 5.05", "unit": "min"}, {"measurement": "EF enhancement factor", "setting": "[1]; Table 5c, EtoH/PBS", "result": 3.75}, {"measurement": "JS flux", "setting": "[1]; [8]", "result": "8.38 ± 1.09* 10^−4 μg/cm/s"}, {"measurement": "KP permeability coefficient", "setting": "[1]; [8]", "result": "4.19 ± 0.54 10^−5 cm/s"}, {"measurement": "TL lag time", "setting": "[1]; [8]", "result": "24.51 ± 5.50", "unit": "min"}, {"measurement": "EF enhancement factor", "setting": "[1]; [8]", "result": 1.69}, {"measurement": "JS flux", "setting": "[1]; [9]", "result": "6.16 ± 0.89* 10^−4 μg/cm/s"}, {"measurement": "KP permeability coefficient", "setting": "[1]; [9]", "result": "3.08 ± 0.44 10^−5 cm/s"}, {"measurement": "TL lag time", "setting": "[1]; [9]", "result": "22.65 ± 3.22", "unit": "min"}, {"measurement": "EF enhancement factor", "setting": "[1]; [9]", "result": 1.25}, {"measurement": "JS flux", "setting": "[1]; [10]", "result": "10.47 ± 0.96* 10^−4 μg/cm/s"}, {"measurement": "KP permeability coefficient", "setting": "[1]; [10]", "result": "5.23 ± 0.48 10^−5 cm/s"}, {"measurement": "TL lag time", "setting": "[1]; [10]", "result": "23.06 ± 2.19", "unit": "min"}, {"measurement": "EF enhancement factor", "setting": "[1]; [10]", "result": 2.12}, {"measurement": "KP permeability coefficient", "setting": "[1]; [11]", "result": "6.34 ± 1.03 10^−5 cm/s"}, {"measurement": "TL lag time", "setting": "[1]; [11]", "result": "14.55 ± 5.18", "unit": "min"}, {"measurement": "EF enhancement factor", "setting": "[1]; [11]", "result": 2.57}, {"measurement": "KP permeability coefficient", "setting": "[1]; Table 5c, delipidised skin", "result": "10.27 ± 1.43 10^−5 cm/s"}, {"measurement": "TL lag time", "setting": "[1]; Table 5c, delipidised skin", "result": "8.17 ± 5.41", "unit": "min"}, {"measurement": "EF enhancement factor", "setting": "[1]; Table 5c, delipidised skin", "result": 4.16}, {"measurement": "KP permeability coefficient", "setting": "[1]; Table 5c, tapestripped skin", "result": "7.80 ± 1.84 10^−5 cm/s"}, {"measurement": "TL lag time", "setting": "[1]; Table 5c, tapestripped skin", "result": "34.78 ± 4.44", "unit": "min"}, {"measurement": "EF enhancement factor", "setting": "[1]; Table 5c, tapestripped skin", "result": 3.16}, {"measurement": "KP permeability coefficient", "setting": "[1]; Table 5c, untreated skin", "result": "2.47 ± 0.11 10^−5 cm/s"}, {"measurement": "TL lag time", "setting": "[1]; Table 5c, untreated skin", "result": "35.84 ± 1.98", "unit": "min"}, {"measurement": "Log P (o/w)", "setting": "[2]", "result": 3.57}]}
